Earlier results on 2 compounds are cited in patent US20250114375A1, “PHARMACEUTICAL COMPOSITION OF LIFITEGRAST AND LOTEPREDNOL ETABONATE” (ORBICULAR PHARMACEUTICAL TECHNOLOGIES PRIVATE LIMITED, priority 2022, published 2025).

Data set [1] deals with conjunctival goblet cells. As to conditions: in vivo.
Data set [2] addresses T1, glucocorticoid receptors (Homo sapiens, UniProt P04150).
T1 sequence (P04150 1-777): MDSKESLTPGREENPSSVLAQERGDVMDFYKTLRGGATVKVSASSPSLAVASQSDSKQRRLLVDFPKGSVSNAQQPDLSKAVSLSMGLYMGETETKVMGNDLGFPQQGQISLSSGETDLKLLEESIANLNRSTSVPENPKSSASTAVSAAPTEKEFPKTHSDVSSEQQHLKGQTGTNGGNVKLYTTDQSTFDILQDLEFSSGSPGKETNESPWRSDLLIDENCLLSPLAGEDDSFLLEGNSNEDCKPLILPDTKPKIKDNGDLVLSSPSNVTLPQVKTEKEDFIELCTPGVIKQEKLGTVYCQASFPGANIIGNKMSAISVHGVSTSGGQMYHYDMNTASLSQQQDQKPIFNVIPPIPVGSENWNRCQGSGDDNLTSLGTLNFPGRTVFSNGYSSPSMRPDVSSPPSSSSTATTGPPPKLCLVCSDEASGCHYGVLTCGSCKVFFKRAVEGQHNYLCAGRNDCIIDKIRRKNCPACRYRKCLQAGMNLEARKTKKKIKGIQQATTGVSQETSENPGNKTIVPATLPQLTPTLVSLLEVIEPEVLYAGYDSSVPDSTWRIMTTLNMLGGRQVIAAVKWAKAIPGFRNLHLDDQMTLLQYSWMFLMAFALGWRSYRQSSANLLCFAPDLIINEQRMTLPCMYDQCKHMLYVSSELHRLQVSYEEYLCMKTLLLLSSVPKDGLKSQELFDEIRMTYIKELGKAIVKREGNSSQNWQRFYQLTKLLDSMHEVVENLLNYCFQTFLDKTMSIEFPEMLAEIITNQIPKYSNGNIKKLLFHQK
The settings on record: inactive carboxylic acid metabolite of loteprednol etabonate.

As to `CS(=O)(=O)c1cccc(C[C@H](NC(=O)c2c(Cl)cc3c(c2Cl)CCN(C(=O)c2ccc4ccoc4c2)C3)C(=O)O)c1` [Lifitegrast], in data set [1], the “increase of goblet cell area” value is reported as 22% and the “increase of the number of conjunctival goblet cells” value is 39%.
Consider `CCOC(=O)OC1(C(=O)O)CCC2C3CCC4=CC(=O)C=CC4(C)C3C(O)CC21C` (stereo not drawn) [PJ-91], for which the “binding to glucocorticoid receptors” value in data set [2] is reported as “does not bind”.
